Activity calls are given as the source filed them. For most assays here, no stated cut-off is given here; in the data, actives have a measured EC50 and inactives only a lower limit.
Legend:
[1] = cytotoxicity toward NIH3T3 fibroblasts, dose response, counter-screen, cell-based, ATP luminescence, mouse fibroblasts (AID 2010); format: functional;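 further: cells exposed to compound for about 90 hours before reading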
[2] = inhibitors of intracellular T. cruzi replication, confirmation, NIH3T3 host cells, beta-gal luminescence (AID 2044); format: functional, cell-based;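 further: intracellular parasites grown in NIH/3T3 mouse fibroblasts as host cells; luminescent beta-galactosidase reporter signal from transgenic T. cruzi replicating inside host cells; inhibitors lower the luminescence signal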
[3] = Luminescence Cell-Based Dose Confirmation HTS to Identify Activators of 5'UTR Stem-Loop Driven Alpha-Synuclein mRNA Translation in H4 Neuroglioblastoma Cells. [Related pubchem assays: 1829 (Project Summary), 1814 (Primary HTS)]; format: functional
H4 = assay: Luminescence Cell-Based Dose Response HTS to Identify Activators of 5'UTR Stem-Loop Driven Prion Protein mRNA Translation in H4 Neuroglioblastoma Cells. [Related pubchem assays: 1829 (Project Summary), 1814 (Primary HTS)]; format: functional; conditions: Homo sapiens
[4] = Luminescence Cell-Based Dose Response HTS to Identify Activators of Luciferase Translation or Activity in H4 […] Cells. [Related pubchem assays: 1829 (Project Summary), 1814 (Primary HTS)]; format: functional
Cytochrome P450 1A2 = target: T1, Cytochrome P450 1A2 (Homo sapiens, UniProt P05177);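 further: PubChem cytochrome P450 panel assay, CYP1A2 panel member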
T1 sequence (P05177 whole entry): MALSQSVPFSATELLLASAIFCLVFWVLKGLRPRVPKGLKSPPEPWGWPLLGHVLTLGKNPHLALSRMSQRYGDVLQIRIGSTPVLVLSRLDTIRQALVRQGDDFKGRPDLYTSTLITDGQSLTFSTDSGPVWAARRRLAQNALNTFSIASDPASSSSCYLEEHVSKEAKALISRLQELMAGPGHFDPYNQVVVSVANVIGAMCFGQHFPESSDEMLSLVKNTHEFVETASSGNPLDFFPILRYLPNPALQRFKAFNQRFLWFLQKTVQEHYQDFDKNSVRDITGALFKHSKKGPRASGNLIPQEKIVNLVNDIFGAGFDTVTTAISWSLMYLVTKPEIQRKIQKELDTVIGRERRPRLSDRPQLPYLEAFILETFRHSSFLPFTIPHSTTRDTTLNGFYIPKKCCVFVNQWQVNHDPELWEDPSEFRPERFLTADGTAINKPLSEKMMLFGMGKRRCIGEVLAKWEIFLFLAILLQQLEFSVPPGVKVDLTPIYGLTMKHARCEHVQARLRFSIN

[5] = target: T2, Heat shock factor protein 1 (Mus musculus, UniProt P38532); assay: inhibition of MG132-induced HSE-luciferase signal, confirmation, cell-based, NIH3T3, luminescence, dose retest (AID 2382); format: functional;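 further: NIH3T3 fibroblasts with HSF1-driven luciferase reporter stressed by proteasome inhibitor MG132; luminescence from HSF1-driven luciferase expression after 8 hours of MG132 stress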
T2 sequence (P38532 whole entry): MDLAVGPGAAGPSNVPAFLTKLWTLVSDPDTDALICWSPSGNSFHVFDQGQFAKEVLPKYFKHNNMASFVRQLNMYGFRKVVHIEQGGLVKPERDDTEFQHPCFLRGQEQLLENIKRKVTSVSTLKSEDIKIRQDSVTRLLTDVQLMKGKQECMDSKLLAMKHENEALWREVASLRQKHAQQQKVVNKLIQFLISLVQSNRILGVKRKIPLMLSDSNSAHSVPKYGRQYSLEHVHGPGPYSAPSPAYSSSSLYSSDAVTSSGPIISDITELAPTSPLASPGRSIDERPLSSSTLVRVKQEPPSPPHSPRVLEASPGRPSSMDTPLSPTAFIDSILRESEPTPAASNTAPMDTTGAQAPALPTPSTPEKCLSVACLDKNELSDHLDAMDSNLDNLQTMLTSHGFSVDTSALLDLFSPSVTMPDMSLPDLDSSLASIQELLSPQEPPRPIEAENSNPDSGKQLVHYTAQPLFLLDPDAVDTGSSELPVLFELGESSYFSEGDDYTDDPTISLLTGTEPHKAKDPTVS

For `CC(C)Cc1nnc(NC(=O)c2cccc(S(=O)(=O)N3CCN(C)CC3)c2)s1`, the EC50 [1] was > 60 µM (not active) and the EC50 [2] was 0.1 µM (active).
In the case of `c1ccc(CN2CCN(c3cnc4ccccc4n3)CC2)cc1`, the EC50 [3] is reported as 4.79 µM (active), the EC50 (H4) is reported as 10.9 µM (active) and the EC50 [4] is reported as 26.8 µM (active).
With `COc1ccccc1Cn1nnc2c(=O)[nH]c(C3CCN(C(=O)c4ccc(C)cc4)CC3)nc21` the AC50 (Cytochrome P450 1A2) was 25.1 µM (inconclusive).
In the case of `Fc1ccc(-c2csc(/C=C/c3ccc4c(c3)OCO4)n2)cc1`, the EC50 [3] is reported as 9.2 µM (active), the EC50 (H4) is reported as 46.8 µM (active) and the EC50 [4] is reported as 9.07 µM (active).
With `COc1ccc(-c2ccc(-c3nnn(CC(=O)N4CCOCC4)n3)cc2)cc1` the EC50 [3] was 4.15 µM (active), the EC50 (H4) was 2.65 µM (active) and the EC50 [4] was 4.67 µM (active).
For `COc1ccc(N2CCN(C(=O)CSc3ncnc4scc(-c5ccc(C)cc5)c34)CC2)cc1`, the EC50 [1] was > 60 µM (not active) and the EC50 [2] was 1.03 µM (active).
With `COC(=O)c1ccc(OCc2cc(=O)n3ccsc3n2)cc1` the EC50 [3] was 21.2 µM (active) and the EC50 [4] was > 120 µM (not active).
With `CCN(CC)CCN1C(=O)Cn2c(C)c(C)c3cccc1c32` the EC50 [1] was > 60 µM (not active) and the EC50 [2] was 0.206 µM (active).
With `C[C@@H](C(=O)Nc1ccc2ccccc2c1)[C@@H]1C[C@@]1(C)[C@@H](NS(=O)(=O)c1ccc(-c2ccccc2)cc1)c1ccccc1` the AC50 (Cytochrome P450 1A2) was 12.6 µM (inconclusive).
With `Cc1cc(C)[n+]2n1C([O-])=C(c1ccccc1)C2=O` the EC50 (H4) was 13.1 µM (active) and the EC50 [4] was 29.1 µM (active).
With `O=C(/C=C/c1ccccc1)NCCC1=CCCCC1` the EC50 [3] was 0.378 µM (active), the EC50 (H4) was 13.1 µM (active) and the EC50 [4] was 2.93 µM (active).
For `COc1ccc(Cc2nnc(NC(=O)c3ccco3)s2)cc1`, the AC50 (Cytochrome P450 1A2) was 11.2 µM (inconclusive).
For `O=C(CSc1cccc2cccnc12)N1CCCC1`, the EC50 [1] was 8.3 µM (active) and the EC50 [2] was 0.299 µM (active).
In the case of `O=C(CN1CCN(C2CCCCC2)CC1)NCCC1=CCCCC1`, the AC50 (Cytochrome P450 1A2) is reported as 20 µM (inconclusive).
For `O=C(Nc1ccccc1)[C@@H]1[C@@H]2C(=O)N(c3ccc(F)cc3)C(=O)[C@@H]2[C@H]2C=CC=NN21`, the EC50 [3] was > 120 µM (not active), the EC50 (H4) was > 120 µM (not active) and the EC50 [4] was > 60 µM (not active).
For `CC(C)C(=O)Nc1cccc(-c2nc3ncccc3o2)c1`, the EC50 [5] was > 195 µM (not active).
In the case of `Cc1ccccc1NC(=O)N1C2CCCC1CC(NC(=O)C1CC1)C2` (stereo unspecified), the EC50 [5] is reported as > 195 µM (not active).
In the case of `O=C(CCCNC(=O)/C(=C\c1ccccc1F)NC(=O)c1ccccc1)OCc1ccccc1`, the EC50 [5] is reported as > 195 µM (not active).
With `COC(=O)C1=C(N)N(c2ccccc2C(F)(F)F)C2=C(C(=O)CCC2)C1c1ccc2c(c1)OCO2` (stereo unspecified) the AC50 (Cytochrome P450 1A2) was 31.6 µM (inconclusive), the EC50 [1] was > 60 µM (not active) and the EC50 [2] was 1.24 µM (active).
With `CCCCN(C)C(=O)CCC(=O)Nc1ccc2nc(N3CCN(C)CC3)cc(C)c2c1` the EC50 [5] was > 195 µM (not active).
In the case of `CCOC(=O)CN1CC23C=CC(O2)C(C(=O)NC2CCCCC2)C3C1=O` (stereo unspecified), the EC50 [5] is reported as > 195 µM (not active).
In the case of `O=C(c1ccc(Cl)cc1)N1CCCC(c2ccccc2)=N1`, the AC50 (Cytochrome P450 1A2) is reported as 0.141 µM (inconclusive).
For `Cc1cc(C)c(-c2nc3ccccc3s2)[nH]1`, the EC50 [3] was 0.207 µM (active), the EC50 (H4) was 30.3 µM (active) and the EC50 [4] was 1.61 µM (active).
In the case of `CC(C)(C)CC(=O)NCCc1csc(-c2ccccc2)n1`, the EC50 [1] is reported as > 60 µM (not active) and the EC50 [2] is reported as 1.1 µM (active).
With `O=C(Nc1ccc([N+](=O)[O-])cc1)C1(c2ccccc2)CCOCC1` the EC50 [5] was > 195 µM (not active).
With `O=C(CCC1CCCNC1)c1ccccc1` (stereo unspecified) the EC50 [5] was > 195 µM (not active).
In the case of `COCCCNC(=O)Cn1cnc2sc(C)c(S(=O)(=O)N3CCN(c4ccccc4OC)CC3)c2c1=O`, the EC50 [5] is reported as > 195 µM (not active).
In the case of `Cc1[nH]c2ccccc2c1C(=O)CSc1nc2cc(S(=O)(=O)N3CCCCC3)ccc2o1`, the EC50 [1] is reported as 18.2 µM (active) and the EC50 [2] is reported as 2.54 µM (active).
In the case of `O=C(COc1ccc(Cl)cc1Cl)NC(=O)N1CCCCC1`, the EC50 [3] is reported as 6.03 µM (active), the EC50 (H4) is reported as 92.5 µM (active) and the EC50 [4] is reported as 30.6 µM (active).
For `COC(=O)[C@@]1(Cc2ccc(OC)cc2)[C@H]2c3cc(C(=O)N4CCCC4)n(CCc4c[nH]c5cc(F)ccc45)c3C[C@H]2CN1C(=O)c1ccccc1`, the AC50 (Cytochrome P450 1A2) was 39.8 µM (inconclusive).
In the case of `CCCS(=O)(=O)c1nc(S(=O)(=O)c2ccc(C)cc2)c(N2CCN(CCO)CC2)s1`, the EC50 [3] is reported as 18.7 µM (active), the EC50 (H4) is reported as > 120 µM (not active) and the EC50 [4] is reported as 8.79 µM (active).
With `O=C(Nc1ccn(Cc2ccccc2)n1)c1ccc2c(c1)OCO2` the EC50 [3] was 15.6 µM (active), the EC50 (H4) was > 120 µM (not active) and the EC50 [4] was 18.5 µM (active).
With `Fc1ccc(COc2ccc(Br)cc2CNCc2ccncc2)cc1` the EC50 [1] was > 30 µM (not active) and the EC50 [2] was 0.78 µM (active).
With `CC(NC(=O)c1ccccc1)c1nc2ccccc2n1Cc1ccccc1F` (stereo unspecified) the AC50 (Cytochrome P450 1A2) was 28.2 µM (inconclusive).
For `CCOc1ccc(CN2CCN(Cc3cccn3-c3cccnc3)CC2CCO)cc1` (stereo unspecified), the EC50 [1] was > 60 µM (not active) and the EC50 [2] was 1.89 µM (active).
In the case of `CCOc1ccc(N/C(=C(/C(=O)C(=O)N2CCOCC2)C(=O)c2ccccc2)c2ccccc2)cc1`, the EC50 [3] is reported as 13.3 µM (active), the EC50 (H4) is reported as 57.8 µM (active) and the EC50 [4] is reported as 20.3 µM (active).
With `Cc1cc(N2CCN(C)CC2)nc2ccc(NC(=O)c3cccnc3Cl)cc12` the EC50 [5] was > 195 µM (not active).
For `O=C(O)C(=O)Nc1ccc(NC(=O)C(c2ccccc2)c2ccccc2)cc1`, the EC50 [5] was > 195 µM (not active).
With `Cc1ccc(C(=O)NCc2ccc(N3CCN(C)CC3)cc2)cc1C` the EC50 [5] was > 195 µM (not active).
With `COc1ccc(CCN(Cc2cccs2)S(=O)(=O)c2ccc(S(=O)(=O)N(C)C3CCCCC3)cc2)cc1OC` the EC50 [1] was > 60 µM (not active) and the EC50 [2] was 0.878 µM (active).
In the case of `CC(=O)NCC1=C(NC(C)=O)C2CC1C(C)(C)C2C` (stereo unspecified), the EC50 [5] is reported as > 195 µM (not active).
For `O=S(=O)(NC(=NC(=S)Nc1ccccc1)c1ccccc1)c1ccc(Cl)cc1`, the EC50 [3] was 41.4 µM (active), the EC50 (H4) was 63.2 µM (active) and the EC50 [4] was 59.7 µM (active).
With `NC(=O)C1(N2CCCCC2)CCN(C2CC(=O)NC2=O)CC1` (stereo unspecified) the EC50 [3] was > 120 µM (not active), the EC50 (H4) was > 120 µM (not active) and the EC50 [4] was > 120 µM (not active).
For `O=C(/C=C/c1ccc2c(c1)OCO2)Nc1nncs1`, the EC50 (H4) was 18.6 µM (active) and the EC50 [4] was 0.1 µM (active).
With `COc1ccc(-c2cn3c(C)c(C(=O)NCCN4CCOCC4)sc3n2)cc1` the AC50 (Cytochrome P450 1A2) was 0.126 µM (inconclusive).
With `C/C(CC1CC(COCC(C)C)OC1=O)=N\Nc1nc(-c2ccccc2)cs1` (stereo unspecified) the EC50 [3] was > 120 µM (not active), the EC50 (H4) was 71.2 µM (active) and the EC50 [4] was > 120 µM (not active).
In the case of `COc1ccccc1C(=O)NCC(=O)N/N=C/c1ccc2c(c1)OCO2`, the EC50 [5] is reported as > 195 µM (not active).
In the case of `CNC(=S)N/N=C/c1c(Cl)cccc1Cl`, the EC50 [5] is reported as > 195 µM (not active).
In the case of `O=C(N/N=C\c1ccc2c(c1)OCO2)c1ccc(Cn2cc(Br)c([N+](=O)[O-])n2)o1`, the EC50 [1] is reported as > 60 µM (not active) and the EC50 [2] is reported as 0.408 µM (active).
With `CCc1cc(/C=N/C2CCCCC2)c(O)s1` the EC50 [3] was 67.7 µM (active), the EC50 (H4) was > 120 µM (not active) and the EC50 [4] was > 120 µM (not active). The EC50 [5] was > 195 µM (not active).
For `CC(C)(C)C1CCc2[nH]c3ccccc3c(=O)c2C1` (stereo unspecified), the EC50 [1] was > 60 µM (not active) and the EC50 [2] was 1.1 µM (active).

— ChEMBL document CHEMBL1201862, “PubChem BioAssay data set” (2004)
